Results reported in patent publication US20220331322A1, “COMPOUND FOR INHIBITING CELL DEATH” (Christian-Albrechts-Universität zu Kiel, priority 2019, published 2022).

How the values were obtained:
L929 cells [1] = assay: TLR3-mediated cell death induced by poly (I:C) + zVAD; type: cell-based, murine; details: L929, 1 μg/ml poly (I:C) + 25 μM zVAD, 24 h; primidone 1 mM, Nec-1s 20 μM
From the text: Cell death was induced by activation of the Toll-like receptor 3 (TLR3). TLR3 is mainly expressed on immune cells, where it senses pathogen-associated molecular patterns and initiates innate immune response. The TLR3 agonist poly (I:C) was developed to mimic pathogens infection and boost immune system activation. In experimental models, poly (I:C) is known to induce regulated cell death in cells expressing TLR3. To examine whether primidone also blocks TLR3-mediated cell death, murine L929 cells were stimulated for 24 h at 37° C. with vehicle (a), 1 μg/ml of the TLR3 ligand poly (I:C) alone (b) or in combination with 25 μM zVAD (c). In addition, cells were stimulated with 1 μg/ml poly (I:C), 25 μM zVAD and 20 μM Nec-1s (d) and with 1 μg/ml poly (I:C), 25 μM zVAD and 1 mM primidone (e).

NF-κB = assay: Western blot of NF-κB activation (p-NF-κB) after TZ stimulation; type: cell-based, murine; details: L929, 100 ng/ml TNF-α + 25 μM zVAD (TZ), 1 mM primidone
Description: It was then analyzed whether primidone interferes with the canonical NF-κB signaling pathway which drives the expression of pro-survival molecules. The binding of TNF-α to its corresponding receptor (TNFR1) initially results in the activation of the NF-κB signaling pathway. In this early phase of TNF activation, the cells are protected from cell death by the presence of a membrane-bound complex known as complex I which is formed within seconds after engagement of TNFR1 by TNF-α. This complex induces the expression of pro-survival molecules via activation of the canonical NF-κB pathway. As the default response of most cells to TNF-α is survival and NF-κB-mediated upregulation of pro-survival genes, it was analyzed whether primidone functions in a survival-signaling mode and thus indirectly prevents cell death signaling. For this purpose, murine L929 cells were stimulated at 37° C. for different time periods (as indicated) with 100 ng/ml TNF-α+25 μM zVAD (TZ) in the absence (vehicle) or presence of 1 mM primidone. Subsequently, a Western blot analysis of the cell lysates using a specific p-NF-κB antibody was performed.

TNF-α-induced complex I = assay: Immunoprecipitation of TNF-α-induced complex I after TSZ, RIPK1 western blot; type: cell-based, human; details: U937, TSZ (100 ng/ml Fc-TNF-α + 1 μM SM164 + 25 μM zVAD), 1 mM primidone
Description: It was tested whether primidone interferes with binding of TNF-α to its corresponding receptor TNFR1. To induce cell death, human U937 cells were treated in the absence (vehicle) or presence of 1 mM primidone with 100 ng/ml Fc-tagged TNF-α+1 μM SMAC mimetic SM164+25 μM zVAD (TSZ) for different time periods, followed by immunopurification of the immunoprecipitated TNF-α-induced complex I using μMACS™ protein A/G microbeads, and western blot analysis using a specific RIPK1 antibody.

L929 cells [2] = assay: Time profile of blocking TZ-induced necroptosis, FACS (7-AAD/Annexin V); type: cell-based, murine; details: L929, 10 ng/ml TNF-α + 25 μM zVAD (TZ), 24 h; primidone 1 mM, Nec-1s 25 μM; one representative experiment of three
Description: The time profile of primidone for blocking cell death was compared to the one of Nec-1s. For this purpose, murine L929 cells were stimulated at 37° C. for 24 h with 10 ng/ml TNF-α+25 μM zVAD (TZ) in the presence of 1 mM primidone and 25 μM Nec-1s, respectively, for the indicated durations. Nec-1s and primidone were added 30 min before, 60 min and 180 min after the induction of RIPK1-mediated necroptosis, respectively. Cell death was quantified by FACS analysis using 7-amino-actinomycin D and phosphatidylserine accessibility (Annexin V staining) as markers.

[3] = Kidney ischemia-reperfusion injury (IRI) mouse model; type: in vivo; details: mice
Description: IRI is a clinically highly relevant model, since it is an unavoidable consequence after kidney transplantation and contributes to acute kidney injuries in various contexts (Müller et al., 2017). To test whether primidone could be used to suppress pathophysiological RIPK1-mediated cell death in renal IRI, mice were provided with a drinking solution containing either primidone at 2.875 mM or vehicle in the regular drinking water for five days prior to ischemia reperfusion surgery until the end of the reperfusion phase. Induction of murine kidney IRI was performed via a midline abdominal incision and bilateral renal pedicle clamping for 37 min using microaneurysm clamps (Aesculap Inc., Center Valley, Pa., USA). Throughout the surgical procedure, mice were kept under isoflurane narcosis and the body temperature was maintained at 36° C. to 37° C. by continuous monitoring using a temperature-controlled self-regulated heating system (Fine Science Tools, Heidelberg, Germany). After removal of the clamps, reperfusion of the kidneys was confirmed visually before the abdomen was closed in two layers using standard 6-0 sutures. After 48 h reperfusion, the mice were sacrificed, blood samples were taken by retrobulbar punction and organs were collected for analysis.
For histology, kidney samples freshly obtained were fixed in 4.5% neutral-buffered formaldehyde and embedded in paraffin. Sections were dewaxed, rehydrated, and subjected to Masson trichrome staining according to routine protocols. Sections were dehydrated and mounted using DePeX mounting media (Serva). Stainings were evaluated in a blinded manner using a Leica Axiovert microscope and Axio Vision SE64 Rel 4.9. software (Leica Microsystems, Wetzlar, Germany). For data presentation, mild sharpening, contrast enhancement and gamma adjustment was performed. To analyze cell death of the tissue sections, a TdT-mediated dUTP nick end labelling (TUNEL) assay was performed using a fluorescence-based detection kit according to the manufacturer's instructions (G3250, Promega). Briefly, tissue sections were dewaxed, rehydrated, fixed in 4% paraformaldehyde and permeabilized with Proteinase K for 10 min at RT. Following this, the sections were equilibrated with the provided buffer for 10 min and labeled with the TdT reaction mix for 60 min at 37° C. in a humidified dark environment. […] Fluorescence micrographs (data not shown) were acquired with a 20× and 40× objective magnifications using a standard fluorescein filter set to view the green fluorescence at 520 nm with a Leica Axiovert microscope and Axio Vision SE64 Rel 4.9 software. Quantification of TUNEL-positive cells was performed manually by two blinded observers by evaluating 8 randomly selected fields of view per slide.

[4] = primidone 2.875 mM in drinking water from 5 days before surgery, 37 min bilateral clamping, 48 h after reperfusion

SMILES: CCC1(c2ccccc2)C(=O)NCNC1=O [primidone, 5-Ethyl-5-phenyl-1,3-diazinane-4,6-dione]
- Protection from RIPK1-mediated cell death induced by poly (I:C) and zVAD (L929 cells [1]): effectively protect cells
- Activation (phosphorylation) of NF-κB (NF-κB): Activation (phosphorylation) of NF-κB was detected
- TNF-α-induced formation of complex I (RIPK1 binding to TNFR1) (TNF-α-induced complex I): not influenced
- Cells still alive, compound added 60 min after induction of cell death (L929 cells [2]): 92.7%
- Cells still alive, compound added 3 hours after induction of cell death (L929 cells [2]): 58.6%
- Serum concentration of creatinine [3, 4]: significantly reduced
- Serum concentration of urea [3, 4]: significantly reduced
- TUNEL-positive cells (cells undergoing regulated cell death) in kidney sections ([3]; primidone 2.875 mM in drinking water, 48 h reperfusion): significant reduced number of cells undergoing regulated cell death
- Masson trichrome histology of renal outer medulla (tissue integrity) ([3]; primidone 2.875 mM in drinking water, 48 h reperfusion, data not shown): better preservation of tissue integrity
